Experimental data: PubChem BioAssay AID248 (DTP/NCI, 2004)
Values joined by “and” are separate entries in the source; they are usually repeats but may differ in a detail not shown here. Identical values can stand only once. Toxic doses and inconclusive results are not listed. Rule as the data show it: active = T/C of 150% or more; inactive = T/C below 125%.

Test system: L1210 leukemia ip in BDF1 mice, survival T/C
Assay: NCI In Vivo Anticancer Drug Screen. Data for tumor model L1210 Leukemia (intraperitoneal) in B6D2F1 (BDF1) mice
Conditions: endpoint: mean survival time, higher = longer survival
In short: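 Mice bearing the transplanted tumor received compound or vehicle. Survival of the treated group was divided by that of the vehicle-treated control group to give the ratio.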

[1] = dose: 6.25 mg/kg/injection, schedule: Q01DX009 (ip), vehicle: saline
[2] = dose: 12.5 mg/kg/injection, schedule: Q01DX009 (ip), vehicle: saline
[3] = dose: 25.0 mg/kg/injection, schedule: Q01DX009 (ip), vehicle: saline
[4] = dose: 25.0 mg/kg/injection, schedule: Q04DX003 (ip), vehicle: saline
[5] = dose: 50.0 mg/kg/injection, schedule: Q01DX009 (ip), vehicle: saline
[6] = dose: 50.0 mg/kg/injection, schedule: Q04DX003 (ip), vehicle: saline
[7] = dose: 100.0 mg/kg/injection, schedule: Q01DX009 (ip), vehicle: saline
[8] = dose: 100.0 mg/kg/injection, schedule: Q04DX003 (ip), vehicle: saline
[9] = dose: 200.0 mg/kg/injection, schedule: Q01DX009 (ip), vehicle: saline
[10] = dose: 100.0 mg/kg/injection, schedule: Q01DX009 (ip), vehicle: saline with Tween-80
[11] = dose: 200.0 mg/kg/injection, schedule: Q01DX009 (ip), vehicle: saline with Tween-80
[12] = dose: 400.0 mg/kg/injection, schedule: Q01DX009 (ip), vehicle: saline with Tween-80
[13] = dose: 200.0 mg/kg/injection, schedule: Q04DX003 (ip), vehicle: saline
[14] = dose: 400.0 mg/kg/injection, schedule: Q01DX009 (ip), vehicle: saline
[15] = dose: 400.0 mg/kg/injection, schedule: Q04DX003 (ip), vehicle: saline
[16] = dose: 100.0 mg/kg/injection, schedule: Q04DX003 (ip), vehicle: saline with Tween-80
[17] = dose: 200.0 mg/kg/injection, schedule: Q04DX003 (ip), vehicle: saline with Tween-80
[18] = dose: 400.0 mg/kg/injection, schedule: Q04DX003 (ip), vehicle: saline with Tween-80
[19] = dose: 100.0 mg/kg/injection, schedule: Q01DX009 (ip), vehicle: Klucel (hydroxypropylcellulose) (HPC)
[20] = dose: 100.0 mg/kg/injection, schedule: Q04DX003 (ip), vehicle: Klucel (hydroxypropylcellulose) (HPC)
[21] = dose: 200.0 mg/kg/injection, schedule: Q01DX009 (ip), vehicle: Klucel (hydroxypropylcellulose) (HPC)
[22] = dose: 200.0 mg/kg/injection, schedule: Q04DX003 (ip), vehicle: Klucel (hydroxypropylcellulose) (HPC)
[23] = dose: 400.0 mg/kg/injection, schedule: Q01DX009 (ip), vehicle: Klucel (hydroxypropylcellulose) (HPC)
[24] = dose: 400.0 mg/kg/injection, schedule: Q04DX003 (ip), vehicle: Klucel (hydroxypropylcellulose) (HPC)
[25] = dose: 25.0 mg/kg/injection, schedule: Q01DX009 (ip), vehicle: Klucel (hydroxypropylcellulose) (HPC)
[26] = dose: 50.0 mg/kg/injection, schedule: Q01DX009 (ip), vehicle: Klucel (hydroxypropylcellulose) (HPC)

Measured: T/C

CNCC(C)(C)c1ccccc1
inactive: [1] 101 % of control | [2] 101 % of control | [3] 102 % of control | [4] 104 % of control | [5] 107 % of control | [6] 104 % of control | [7] 104 % of control | [8] 106 % of control

O=C(O)CCNCc1ccccc1
inactive: [5] 100 % of control | [7] 108 % of control | dose: 100.0 mg/kg/injection, schedule: Q04DX002 (ip), vehicle: saline 111 % of control | [9] 100 % of control | dose: 200.0 mg/kg/injection, schedule: Q04DX002 (ip), vehicle: saline 97 % of control | dose: 400.0 mg/kg/injection, schedule: Q04DX002 (ip), vehicle: saline 97 % of control

Cc1ccc(Nc2cc(Cl)nc(N)n2)cc1Cl
inactive: dose: 100.0 mg/kg/injection, schedule: Q01DX Z (ip), vehicle: methylcellulose (MC) 97 % of control | dose: 200.0 mg/kg/injection, schedule: Q01DX Z (ip), vehicle: methylcellulose (MC) 100 % of control

CC(C(=O)c1ccc(-c2ccccc2)cc1)C(Cl)c1ccccc1 (stereo not drawn)
inactive: [10] 106 % of control | [11] 94 % of control | [12] 97 % of control

COc1ccc(CN(CCO)S(C)(=O)=O)cc1
inactive: [8] 91 % of control | [9] 96 % of control | [13] 96 % of control | [14] 88 % of control | [15] 100 % of control

COc1cc(CC2=NCCc3cc(OC)c(OCc4ccccc4)cc32)ccc1OCc1ccccc1
inactive: [10] 94 % of control | [11] 100 % of control

C1=CC2(CCC13CS3)CS2 (stereo not drawn)
inactive: dose: 100.0 mg/kg/injection, schedule: Q04DX002 (ip), vehicle: saline with Tween-80 91 % of control | dose: 200.0 mg/kg/injection, schedule: Q04DX002 (ip), vehicle: saline with Tween-80 88 % of control | dose: 400.0 mg/kg/injection, schedule: Q04DX002 (ip), vehicle: saline with Tween-80 91 % of control

NC1(C(=O)O)CC(O)(c2ccccc2)C(O)(c2ccccc2)C1 (stereo not drawn)
inactive: dose: 100.0 mg/kg/injection, schedule: Q01DX001 (ip), vehicle: saline 88 % of control | dose: 200.0 mg/kg/injection, schedule: Q01DX001 (ip), vehicle: saline 93 % of control

O=C(O)c1cc2c3c(c1)CCCN3CCC2
inactive: dose: 50.0 mg/kg/injection, schedule: Q04DX003 (ip), vehicle: saline with Tween-80 100 % of control | [16] 100 % of control | [17] 102 % of control | [18] 91 % of control

Cc1ccc([P+](Cc2ccccc2)(c2ccccc2)c2cccc3ccccc23)cc1 (stereo not drawn)
inactive: dose: 15.0 mg/kg/injection, schedule: Q01DX001 (ip), vehicle: carboxymethylcellulose (CMC) 94 % of control | dose: 30.0 mg/kg/injection, schedule: Q01DX001 (ip), vehicle: carboxymethylcellulose (CMC) 93 % of control

c1cc2c3c(c1)/C(=N\N=C1/CCN4CCCc5cccc1c54)CCN3CCC2
inactive: dose: 50.0 mg/kg/injection, schedule: Q01DX009 (ip), vehicle: saline with Tween-80 91 % of control | [10] 89 % of control | [16] 92 % of control | [11] 92 % of control | [17] 89 % of control

CCN(C(=O)Nc1ccccc1)c1ccccc1C
inactive: [10] 97 % of control | [16] 111 % of control | [11] 86 % of control | [17] 98 % of control | [12] 92 % of control | [18] 102 % of control

COc1ccc(CC(=O)NC(N)=O)cc1
inactive: [16] 101 % of control | [17] 97 % of control | [18] 90 % of control

CCNC1C2CCC(C2)C1c1ccccc1 (stereo not drawn)
inactive: dose: 3.12 mg/kg/injection, schedule: Q01DX009 (ip), vehicle: saline 94 % of control | [1] 94 % of control | [2] 89 % of control | [3] 93 % of control | [4] 89 % of control | [6] 94 % of control

Cc1cc2c(c(NC(=O)NCCCl)c1C)CCCC2
inactive: [19] 92 % of control | [20] 105 % of control | [21] 100 % of control | [22] 96 % of control | [23] 91 % of control | [24] 103 % of control

COc1ccccc1N=Nc1c(O)n(-c2ccccc2C)c(=S)n(-c2ccccc2)c1=O
inactive: dose: 25.0 mg/kg/injection, schedule: Q04DX003 (ip), vehicle: Klucel (hydroxypropylcellulose) (HPC) 107 % of control | dose: 50.0 mg/kg/injection, schedule: Q04DX003 (ip), vehicle: Klucel (hydroxypropylcellulose) (HPC) 105 % of control | dose: 100.0 mg/kg/injection, schedule: Q01DX001 (ip), vehicle: Klucel (hydroxypropylcellulose) (HPC) 101 % of control | [20] 107 % of control | dose: 200.0 mg/kg/injection, schedule: Q01DX001 (ip), vehicle: Klucel (hydroxypropylcellulose) (HPC) 95 % of control

COc1cc(OC)c(Br)cc1C
inactive: [10] 100 % of control | [16] 100 % of control | [11] 101 % of control | [17] 96 % of control | [12] 102 % of control | [18] 104 % of control

O=C(Nc1cccc(C(=O)O)c1)Nc1cccc(C(F)(F)F)c1
inactive: [19] 86 % of control | [21] 86 % of control

CCCCCCC(C)N(C)CCOC(=O)c1ccc([N+](=O)[O-])cc1 (stereo not drawn)
inactive: dose: 75.0 mg/kg/injection, schedule: Q01DX001 (ip), vehicle: other 101 % of control | dose: 150.0 mg/kg/injection, schedule: Q01DX001 (ip), vehicle: other 106 % of control

NC(=O)c1ccc[n+]([O-])c1
inactive: [19] 104 % of control | [20] 100 % of control | [21] 100 % of control | [22] 100 % of control | [23] 98 % of control | [24] 94 % of control

Cc1c(Cl)cccc1NC(=O)Nc1ccccc1F
inactive: [19] 91 % of control | dose: 100.0 mg/kg/injection, schedule: Q04DX002 (ip), vehicle: Klucel (hydroxypropylcellulose) (HPC) 97 % of control | [21] 106 % of control | dose: 200.0 mg/kg/injection, schedule: Q04DX002 (ip), vehicle: Klucel (hydroxypropylcellulose) (HPC) 97 % of control | [23] 96 % of control | dose: 400.0 mg/kg/injection, schedule: Q04DX002 (ip), vehicle: Klucel (hydroxypropylcellulose) (HPC) 94 % of control

CC(=O)CC(=O)n1c(=O)cc(C)c2ccccc21
inactive: dose: 75.0 mg/kg/injection, schedule: Q04DX003 (ip), vehicle: saline with Tween-80 117 % of control | dose: 150.0 mg/kg/injection, schedule: Q04DX003 (ip), vehicle: saline with Tween-80 98 % of control | dose: 300.0 mg/kg/injection, schedule: Q04DX003 (ip), vehicle: saline with Tween-80 98 % of control

COC1OC2COc3ccccc3OC2C(NC#N)C1OC (stereo not drawn)
inactive: [25] 102 % of control | [26] 96 % of control | [19] 93 % of control and 87 % of control

c1ccc(-c2c[n+]3cc4ccccc4cc3cn2)cc1
inactive: [7] 91 % of control | [8] 100 % of control | [9] 96 % of control | [13] 96 % of control | [14] 97 % of control | [15] 98 % of control

CSc1cnnc2ccccc12
inactive: [25] 110 % of control | [26] 115 % of control

O=c1ssc(Cl)c1Cl
inactive: dose: 9.5 mg/kg/injection, schedule: Q01DX001 (ip), vehicle: other 94 % of control | dose: 10.0 mg/kg/injection, schedule: Q04DX003 (ip), vehicle: other 97 % of control | dose: 19.0 mg/kg/injection, schedule: Q01DX001 (ip), vehicle: other 103 % of control | dose: 20.0 mg/kg/injection, schedule: Q04DX003 (ip), vehicle: other 107 % of control | dose: 38.0 mg/kg/injection, schedule: Q01DX001 (ip), vehicle: other 87 % of control | dose: 40.0 mg/kg/injection, schedule: Q04DX003 (ip), vehicle: other 88 % of control
